Reference: ChEMBL document CHEMBL3232901, “Design, synthesis, and pharmacological evaluation of fluorinated tetrahydrouridine derivatives as inhibitors of cytidine deaminase” (J Med Chem, 2014)

How the values were obtained:
[1] = Chemical stability in simulated gastric fluid assessed as compound remaining after 2 hrs at pH 1.2 at 37 degC; type: ADME, physicochemical, Stomach; settings: read-out: Stability
[2] = Chemical stability in simulated gastric fluid assessed as compound remaining after 10 mins at pH 1.2 at 37 degC; type: ADME, physicochemical, Stomach; settings: read-out: Stability

O=C1NC(O)CCN1[C@@H]1O[C@H](CO)[C@@H](O)[C@H]1O (mixture of isomers) [TETRAHYDROURIDINE]
remaining at 2 h [1]: 15%
remaining at 10 min [2]: 50%
